Measured values: patent publication US7297353B2, “Use of anemonin for treating aseptic inflammations” (priority 2000, dated 2007)

Tests used:
IL-12(p40) = test: Cytokine production from splenocytes, Sac stimulation, IL-12(p40) (ELISA); type: cell-based, murine; details: 24 h
Description: (§1) For splenocyte cytokine production assay, 5×10^6 cells per well were inoculated into a 24-well tissue culture plate with ConA (5 mg/L) or Sac (1:10000) stimulation. Different concentrations of Anemonin were added in a final volume of 2 ml. Cells were incubated at 37° C., 5% CO2 for 24 h and supernatants were harvested, IFN-γ, IL-10, IL12 (p40) and IL-2 in supernatants were measured by the sandwich enzyme-linked immunosorbent assay (ELISA) as specified by the manufacturer (BD Bioscience pharmingen, US). Concentrations of the cytokine productions were calculated based on standard curves obtained from serial dilutions of murine cytokines (r IFN-γ, rIL-10, rIL12, rIL-2). As shown in Tables C-3 and C-4, high-dose Anemonin (1-100 μg/ml) inhibited all kinds of cytokine release induced by ConA or Sac.

IFN-γ = test: Cytokine production from splenocytes, ConA stimulation, IFN-γ (ELISA); type: cell-based, murine; details: 24 h
Description: as §1

## O=C1C=CC2(CCC23C=CC(=O)O3)O1 (stereo not drawn) [Anemonin, anemonin]
IL-12(p40); 0.001 μg/ml
  IL-12(p40): 501 ± 6 pg/mL
IL-12(p40); 0.01 μg/ml
  IL-12(p40): 446 ± 0 pg/mL
IL-12(p40); 0.1 μg/ml
  IL-12(p40): 444 ± 3 pg/mL
IL-12(p40); 1 μg/ml
  IL-12(p40): 293 ± 0 pg/mL
IL-12(p40); 10 μg/ml
  IL-12(p40): 86 ± 6 pg/mL
IL-12(p40); 100 μg/ml
  IL-12(p40): 72 ± 4 pg/mL
IFN-γ; 0.001 μg/ml
  IFN-γ: 2405 ± 171 pg/mL
IFN-γ; 0.01 μg/ml
  IFN-γ: 2651 ± 120 pg/mL
IFN-γ; 0.1 μg/ml
  IFN-γ: 2298 ± 4 pg/mL
IFN-γ; 1 μg/ml
  IFN-γ: 508 ± 16 pg/mL
IFN-γ; 10 μg/ml
  IFN-γ: 94 ± 0 pg/mL
IFN-γ; 100 μg/ml
  IFN-γ: 89 ± 3 pg/mL
